Data taken from patent US11472799B2, “Serine threonine kinase (AKT) degradation / disruption compounds and methods of use” (Icahn School of Medicine at Mount Sinai, priority 2018, dated 2022).

Tested on: AKT
Experiment: Western blot of AKT protein levels in PC-3 cells
Assay type: cell-based, human
Details: 1 μM (FIGS. 11 and 12)
Description: (§1) PC-3, U87MG, HCC1143, MDA-MB-231, MDA-MB-468, BT474 and MCF-7 cell lines were purchased from ATCC. Cell lines were regularly tested in the lab for mycoplasma. All cells were cultured at 37° C. and 5% CO2. PC-3, U87MG, MDA-MB-231, MCF-7 and BT474 cells were cultured in 1×DMEM (Corning, 10-013-CV) with 10% fetal bovine serum (Atlanta Biologicals S11150) and 1× Penicillin/Streptomycin. HCC1143 cells were cultured in RPMI (Corning, 10-040-CV) medium with 10% fetal bovine serum (Atlanta Biologicals S11150) and 1× Penicillin/Streptomycin. Cells were split using 0.05% or 0.25% trypsin (Corning 25-051-Cl or 25-053-Cl, respectively) before they reached full confluence and media was changed every 3-4 days. Cells were treated with compounds individually at different concentrations for 24 hrs. Cells were treated with DMSO, VHL, or PML alone as controls.
(§2) Cells were lysed in 2× sample buffer (125 mM Tris-HCl at pH 6.8, 10% βME, 2% SDS, 20% glycerol, 0.05% Bromophenol Blue, 8 M urea). Protein lysates were loaded into 4-12% Bis-Tris gels and resolved by electrophoresis. Samples were then blotted on PVDF membrane (Millipore IPVH00010) using the wet transfer technique (Invitrogen). Membranes were blocked in 5% milk-TBST for 1 hour, washed in TBST for 10 min, and incubated in primary antibody in 5% milk-TBST or 5% BSA-TBST at 4° C. for 16 h. Membranes were rinsed (3×6 min) in TBST and incubated in horseradish peroxidase-conjugated secondary antibodies in 5% milk-TBST for 1 hour and rinsed again in TBST (3×6 min). Membranes were visualized using the chemiluminescence system (Thermo 34080, 37075) on autoradiography film (Denville E3018). Primary Antibodies: R-actin (Sigma A5316), p-AKT (Ser473 CST-9721), total AKT (CST-9272), p-S6 (Ser240/244, CST-5364), p-PRAS40 (Thr246, CST-2997). Secondary Antibodies: Mouse (Thermo 31432), Rabbit (Thermo 31460).

SMILES	suppression of AKT protein level and AKT activity
Cc1ncsc1-c1ccc(CNC(=O)[C@@H]2C[C@@H](O)CN2C(=O)[C@@H](NC(=O)CCCCCCCNC(=O)CCc2cccc(-c3ccc4nc(-c5cccnc5N)n(-c5ccc(C6(N)CCC6)cc5)c4n3)c2)C(C)(C)C)cc1 [XF067-15, (2S,4R)-1-((S)-2-(8-(3-(3-(3-(4-(1-aminocyclobutyl)phenyl)-2-(2-aminopyridin-3-yl)-3H-imidazo[4,5-b]pyridin-5-yl)phenyl)propanamido)octanamido)-3,3-dimethylbutanoyl)-4-hydroxy-N-(4-(4-methylthiazol-5-yl)benzyl)pyrrolidine-2-carboxamide]	effective in suppressing AKT protein level and AKT activity
Cc1ncsc1-c1ccc(CNC(=O)[C@@H]2C[C@@H](O)CN2C(=O)[C@@H](NC(=O)CCCCCCCCNC(=O)CCc2cccc(-c3ccc4nc(-c5cccnc5N)n(-c5ccc(C6(N)CCC6)cc5)c4n3)c2)C(C)(C)C)cc1 [XF067-16, (2S,4R)-1-((S)-2-(9-(3-(3-(3-(4-(1-aminocyclobutyl)phenyl)-2-(2-aminopyridin-3-yl)-3H-imidazo[4,5-b]pyridin-5-yl)phenyl)propanamido)nonanamido)-3,3-dimethylbutanoyl)-4-hydroxy-N-(4-(4-methylthiazol-5-yl)benzyl)pyrrolidine-2-carboxamide]	effective in suppressing AKT protein level and AKT activity
Cc1ncsc1-c1ccc(CNC(=O)[C@@H]2C[C@@H](O)CN2C(=O)[C@@H](NC(=O)CCCCCCCCCNC(=O)CCc2cccc(-c3ccc4nc(-c5cccnc5N)n(-c5ccc(C6(N)CCC6)cc5)c4n3)c2)C(C)(C)C)cc1 [XF067-17, (2S,4R)-1-((S)-2-(10-(3-(3-(3-(4-(1-aminocyclobutyl)phenyl)-2-(2-aminopyridin-3-yl)-3H-imidazo[4,5-b]pyridin-5-yl)phenyl)propanamido)decanamido)-3,3-dimethylbutanoyl)-4-hydroxy-N-(4-(4-methylthiazol-5-yl)benzyl)pyrrolidine-2-carboxamide]	effective in suppressing AKT protein level and AKT activity

Same assay, conditions: 1 μM for 24 h (FIGS. 11, 12)

SMILES	AKT protein levels
Nc1ncccc1-c1nc2ccc(-c3ccccc3)nc2n1-c1ccc(C2(N)CCC2)cc1 [ARQ-092, 3-(3-(4-(1-Aminocyclobutyl)phenyl)-5-phenyl-3H-imidazo[4,5-b]pyridin-2-yl)pyridin-2-amine, reference compound]	no effect
CCn1c(-c2nonc2N)nc2c(C#CC(C)(C)O)ncc(OC[C@H]3CCCNC3)c21 [GSK690693, 4-(2-(4-amino-1,2,5-oxadiazol-3-yl)-1-ethyl-7-{[(3S)-3-piperidinylmethyl]oxy}-1H-imidazo[4,5-c]pyridin-4-yl)-2-methyl-3-butyn-2-ol, reference compound]	no effect

Tested on: AKT
Experiment: Western blot of AKT protein levels and downstream signaling in BT474 cells
Assay type: cell-based, human
Details: Western blot (FIGS. 1, 3, 4)
Description: as §1, §2

SMILES	suppression of AKT protein level and AKT activity
Cc1ncsc1-c1ccc([C@H](C)NC(=O)[C@@H]2C[C@@H](O)CN2C(=O)[C@@H](NC(=O)CCCCCCCCCC(=O)N2CCN(CC[C@H](NC(=O)C3(N)CCN(c4ncnc5[nH]ccc45)CC3)c3ccc(Cl)cc3)CC2)C(C)(C)C)cc1 [XF050-167, 4-amino-N-((S)-1-(4-chlorophenyl)-3-(4-(11-(((S)-1-((2S,4R)-4-hydroxy-2-(((S)-1-(4-(4-methylthiazol-5-yl)phenyl)ethyl)carbamoyl)pyrrolidin-1-yl)-3,3-dimethyl-1-oxobutan-2-yl)amino)-11-oxoundecanoyl)piperazin-1-yl)propyl)-1-(7H-pyrrolo[2,3-d]pyrimidin-4-yl)piperidine-4-carboxamide]	effective in suppressing both AKT protein level and AKT activity
NC1(C(=O)N[C@@H](CCN2CCN(C(=O)CCOCCOCCOCCOCCOCCOCCNc3cccc4c3C(=O)N(C3CCC(=O)NC3=O)C4=O)CC2)c2ccc(Cl)cc2)CCN(c2ncnc3[nH]ccc23)CC1 (stereo partly drawn) [XF056-33, 4-amino-N-((1S)-1-(4-chlorophenyl)-3-(4-(1-((2-(2,6-dioxopiperidin-3-yl)-1,3-dioxoisoindolin-4-yl)amino)-3,6,9,12,15,18-hexaoxahenicosan-21-oyl)piperazin-1-yl)propyl)-1-(7H-pyrrolo[2,3-d]pyrimidin-4-yl)piperidine-4-carboxamide]	effective in suppressing both AKT protein level and AKT activity
NC1(C(=O)N[C@@H](CCN2CCN(C(=O)CCOCCOCCOCCOCCOCCOCCOCCOCCNc3cccc4c3C(=O)N(C3CCC(=O)NC3=O)C4=O)CC2)c2ccc(Cl)cc2)CCN(c2ncnc3[nH]ccc23)CC1 (stereo partly drawn) [XF056-34, 4-amino-N-((1S)-1-(4-chlorophenyl)-3-(4-(1-((2-(2,6-dioxopiperidin-3-yl)-1,3-dioxoisoindolin-4-yl)amino)-3,6,9,12,15,18,21,24-octaoxaheptacosan-27-oyl)piperazin-1-yl)propyl)-1-(7H-pyrrolo[2,3-d]pyrimidin-4-yl)piperidine-4-carboxamide]	effective in suppressing both AKT protein level and AKT activity
NC1(C(=O)N[C@@H](CCN2CCN(C(=O)CCOCCOCCOCCOCCOCCOCCOCCOCCOCCNc3cccc4c3C(=O)N(C3CCC(=O)NC3=O)C4=O)CC2)c2ccc(Cl)cc2)CCN(c2ncnc3[nH]ccc23)CC1 (stereo partly drawn) [XF056-35, 4-amino-N-((1S)-1-(4-chlorophenyl)-3-(4-(1-((2-(2,6-dioxopiperidin-3-yl)-1,3-dioxoisoindolin-4-yl)amino)-3,6,9,12,15,18,21,24,27-nonaoxatriacontan-30-oyl)piperazin-1-yl)propyl)-1-(7H-pyrrolo[2,3-d]pyrimidin-4-yl)piperidine-4-carboxamide]	effective in suppressing both AKT protein level and AKT activity
NC1(C(=O)N[C@@H](CCN2CCN(C(=O)CCOCCOCCOCCOCCOCCOc3cccc4c3C(=O)N(C3CCC(=O)NC3=O)C4=O)CC2)c2ccc(Cl)cc2)CCN(c2ncnc3[nH]ccc23)CC1 (stereo partly drawn) [XF056-37, 4-amino-N-((1S)-1-(4-chlorophenyl)-3-(4-(1-((2-(2,6-dioxopiperidin-3-yl)-1,3-dioxoisoindolin-4-yl)oxy)-3,6,9,12,15-pentaoxaoctadecan-18-oyl)piperazin-1-yl)propyl)-1-(7H-pyrrolo[2,3-d]pyrimidin-4-yl)piperidine-4-carboxamide]	effective in suppressing both AKT protein level and AKT activity
C[C@@H]1C[C@@H](O)c2ncnc(N3CCN(C(=O)[C@H](CNCCC(=O)NCCCCCCCCCc4cccc5c4C(=O)N(C4CCC(=O)NC4=O)C5=O)c4ccc(Cl)cc4)CC3)c21 (stereo partly drawn) [XF056-93, 3-(((S)-2-(4-chlorophenyl)-3-(4-((5R,7R)-7-hydroxy-5-methyl-6,7-dihydro-5H-cyclopenta[d]pyrimidin-4-yl)piperazin-1-yl)-3-oxopropyl)amino)-N-(9-(2-(2,6-dioxopiperidin-3-yl)-1,3-dioxoisoindolin-4-yl)nonyl)propanamide]	effective in suppressing both AKT protein level and AKT activity
